According to patent publication US20220180963A1, “METHOD FOR SELECTING PATIENT SPECIFIC THERAPY” (YISSUM RESEARCH DEVELOPMENT COMPANY OF THE HEBREW …, priority 2018, published 2022):

Experiments:
Assay type in all cases: cell-based
[1] = test system: MCF7 cells; assay: Survival of MCF7 cells after drug treatment (methylene blue); details: maximal killing, FIG. 14H
Procedure: Schematic figures of each unbalanced process are shown. […] For each cell line the combination of drugs predicted to target the complete unbalanced signaling signature was tested (marked with an asterix), as well as combinations that were predicted to only partially target the unbalanced signaling flux, each drug alone and taxol. […] Stain-free imaging was used to ensure equal loading.
Indeed, 4-OHT killed only up to 50% of the cells (FIG. 14H). […] Similar to the case in MDA468 cells, the double combination consisting of T and LY was expected to target all unbalanced processes in these cells, however since there are 4 distinct unbalanced processes that need to be targeted, addition of a third drug is apparently necessary to enhance the effect (FIG. 14G-I).

[2] = test system: MDA-MB-231 cells; assay: Survival of MDA-MB-231 cells after drug treatment (methylene blue); details: FIG. 14B; for killing / survival of MDA231 cells: methylene blue survival
Description: (§1) FIG. 14A-I. Experimental validation of the approach (14A, 14D, 14G) Diagrams of signaling signatures of MDA-MB-231, MDA-MB-468 and MCF7 cells, according to SA based analysis. Schematic figures of each unbalanced process are shown. Drug predictions are indicated for each cell line, including the processes that they are predicted to target. (14B, 14E, 14H) Bar charts of survival rates in response to different treatments (as measured by methylene blue). For each cell line the combination of drugs predicted to target the complete unbalanced signaling signature was tested (marked with an asterix), as well as combinations that were predicted to only partially target the unbalanced signaling flux, each drug alone and taxol. For MDA468 a triple combination was tested as well (marked with two asterix signs, shown in the inset in FIG. 14E). […] Stain-free imaging was used to ensure equal loading. […] Bar chart inserts show quantified relative expression of the investigated protein.
To validate the approach, we analyzed a dataset comprising RPPA measurements from 10 cell lines, including breast, ovarian, and oesophageal cancer, and assigned a barcode and drug combinations to each cell line. The predictions were made such that for each cell line, at least one protein hub from every active unbalanced process will be inhibited, aiming to collapse the sample-specific altered signaling network. Three breast cancer cell lines were chosen for experimental validation: MDA-MB-231 (MD231), MDA-MB-468 (MD468), and MCF7. The two formers represent triple negative breast cancer (TNBC) against which no targeted therapy exists in clinics today. TNBC is often treated with non-specific chemotherapy, such as taxol^1. MCF7 represent luminal type A breast cancer, routinely treated with the ERα inhibitor, tamoxifen, and in some cases chemotherapy such as taxanes.

[3] = test system: MDA-MB-468 cells; assay: Survival of MDA-MB-468 cells after drug treatment (methylene blue); details: maximal killing, FIG. 14E
Description: as §1
To validate the approach, we analyzed a dataset comprising RPPA measurements from 10 cell lines, including breast, ovarian, and oesophageal cancer, and assigned a barcode and drug combinations to each cell line. The predictions were made such that for each cell line, at least one protein hub from every active unbalanced process will be inhibited, aiming to collapse the sample-specific altered signaling network. […]

Molecule | cells killed [1] | killing / survival of MDA231 cells [2] | concentration at which efficacy of the treatment plateaued [2] | cells killed [3]
4-hydroxy tamoxifen [4-OHT] | up to 50% |  |  | 
C#Cc1cccc(Nc2ncnc3cc(OCCOC)c(OCCOC)cc23)c1 [erlotinib] |  | no effect |  | 
CC(=O)O[C@H]1C(=O)[C@@]2(C)[C@H]([C@H](OC(=O)c3ccccc3)[C@]3(O)C[C@H](OC(=O)[C@H](O)[C@@H](NC(=O)c4ccccc4)c4ccccc4)C(C)=C1C3(C)C)[C@]1(OC(C)=O)CO[C@@H]1C[C@@H]2O [taxol] |  | efficiently killed | 100 nM | ~80%
CC(=O)Nc1cccc(-n2c(=O)n(C3CC3)c(=O)c3c(Nc4ccc(I)cc4F)n(C)c(=O)c(C)c32)c1 [trametinib] |  |  | 100 nM | 
